Assay [1] deals with T1, 5HT-transporter (Homo sapiens, UniProt P31645).
T1 construct: Human platelet membranes (Oceanix Biosciences Corporation, Hanover, Md., USA) were thawed; tissue Oceanix Biosciences Corporation, Hanover, Md., USA; host or cells: human platelet membranes
Briefly: Binding experiment for the 5HT-transporter ([3H]paroxetine, human platelet membranes). Particulars: [3H]paroxetine 0.5 nM, 60 min at 25° C.; for IC50: read-out: h-5HTT pIC50 (converted). On the procedure:
(§1) The interaction of the compounds of Formula (I) with α2C-adrenoceptor receptors was assessed in in vitro radioligand binding experiments. In general, a low concentration of a radioligand with a high binding affinity for a particular receptor or transporter is incubated with a sample of a tissue preparation enriched in a particular receptor or transporter or with a preparation of cells expressing cloned human receptors in a buffered medium. During the incubation, the radioligand binds to the receptor or transporter. When equilibrium of binding is reached, the receptor bound radioactivity is separated from the non-bound radioactivity, and the receptor- or transporter-bound activity is counted. The interaction of the test compounds with the receptor is assessed in competition binding experiments. Various concentrations of the test compound are added to the incubation mixture containing the receptor- or transporter preparation and the radioligand. The test compound in proportion to its binding affinity and its concentration inhibits binding of the radioligand. The radioligand used for […] receptor binding was [^3H]-raulwolscine.
Human platelet membranes (Oceanix Biosciences Corporation, Hanover, Md., USA) were thawed, diluted in buffer (Tris-HCl 50 mM, 120 mM NaCl and 5 mM KCl) and quickly (max 3 s) homogenised with an Ultraturrax homogenizer. […] Incubation was stopped by rapid filtration of the incubation mixture over GF/B filters, pre-wetted with 0.1% polyethyleneamine, using a Filtermate196 harvester (Packard, Meriden, Conn.). Filters were rinsed extensively with ice-cold buffer and radioactivity on the filters was counted in a Topcount liquid scintillation counter (Packard, Meriden, Conn.). Data were expressed as cpm. Imipramine (at 1 μM final concentration) was used to determine the non-specific binding.
(§2) Data from assays in the presence of compound were calculated as a percentage of total binding measured in the absence of test compound. Inhibition curves, plotting percent of total binding versus the log value of the concentration of the test compound, were automatically generated, and sigmoidal inhibition curves were fitted using non-linear regression. The pIC50 values of test compounds were derived from individual curves.

Assay [2] addresses T2, human adrenergic-α2A receptor (Homo sapiens, UniProt P08913).
T2 construct: expressed in transfected cells; host or cells: CHO cells, stably transfected; membrane preparation
T2 sequence (P08913 1-465): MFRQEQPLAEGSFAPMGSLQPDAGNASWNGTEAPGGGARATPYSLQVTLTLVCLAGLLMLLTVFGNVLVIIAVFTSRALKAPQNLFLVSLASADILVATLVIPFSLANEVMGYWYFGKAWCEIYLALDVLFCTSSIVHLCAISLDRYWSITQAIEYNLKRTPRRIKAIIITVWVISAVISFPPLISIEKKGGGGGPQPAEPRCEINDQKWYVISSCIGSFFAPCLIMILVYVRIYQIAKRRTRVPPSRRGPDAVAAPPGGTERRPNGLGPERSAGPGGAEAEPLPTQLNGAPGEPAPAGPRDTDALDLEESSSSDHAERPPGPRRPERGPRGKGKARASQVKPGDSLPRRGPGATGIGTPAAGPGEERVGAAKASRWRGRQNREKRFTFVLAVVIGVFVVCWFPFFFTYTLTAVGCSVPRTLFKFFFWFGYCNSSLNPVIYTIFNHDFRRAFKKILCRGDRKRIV
As to the kind of experiment: Radioligand binding experiment for hα2A-adrenergic receptor ([3H]raulwolscine). Particulars: [3H]raulwolscine 1 nM, 60 minutes at 25° C.; for IC50: read-out: h-α2A pIC50 (converted). On the procedure:
as §1
(§3) CHO cells, stabile transfected with human adrenergic-α2A, -α2B or α2C receptor cDNA, were cultured in Dulbecco's Modified Eagle's Medium (DMEM)/Nutrient mixture Ham's F12 (ratio 1:1)(Gibco, Gent-Belgium) supplemented with 10% heat inactivated fetal calf serum (Life Technologies, Merelbeke-Belgium) and antibiotics (100 IU/ml penicillin G, 100 μg/ml streptomycin sulphate, 110 μg/ml pyruvic acid and 100 μg/ml L-glutamine). One day before collection, cells were induced with 5 mM sodiumbutyrate. Upon 80-90% of confluence, cells were scraped in phosphate buffered saline without Ca^2+ and Mg^2+ and collected by centrifugation at 1500×g for 10 minutes. The cells were homogenised in Tris-HCl 50 mM using an Ultraturrax homogenizer and centrifuged for 10 minutes at 23,500×g. The pellet was washed once by resuspension and rehomogenization and the final pellet was resuspended in Tris-HCl, divided in 1 ml aliquots and stored at −70° C.
(§4) Membranes were thawed and re-homogenized in incubation buffer (glycylglycine 25 mM, pH 8.0). In a total volume of 500 μl, 2-10 μg protein was incubated with [^3H]raulwolscine (NET-722) (New England Nuclear, USA) (1 nM final concentration) with or without competitor for 60 minutes at 25° C. followed by rapid filtration over GF/B filter using a Filtermate196 harvester (Packard, Meriden, Conn.). Filters were rinsed extensively with ice-cold rinsing buffer (Tris-HCl 50 mM pH 7.4). Filter-bound radioactivity was determined by scintillation counting in a Topcount (Packard, Meriden, Conn.) and results were expressed as counts per minute (cpm). Non-specific binding was determined in the presence of 1 μM oxymetazoline for hα2A- and hα2B receptors and 1 μM spiroxatrine for hα2C receptors.
as §2

For assay [3], the target named is T3, human adrenergic-α2C receptor (Homo sapiens, UniProt P18825).
T3 construct: expressed in transfected cells; host or cells: CHO cells, stably transfected; membrane preparation
T3 sequence (P18825 1-462): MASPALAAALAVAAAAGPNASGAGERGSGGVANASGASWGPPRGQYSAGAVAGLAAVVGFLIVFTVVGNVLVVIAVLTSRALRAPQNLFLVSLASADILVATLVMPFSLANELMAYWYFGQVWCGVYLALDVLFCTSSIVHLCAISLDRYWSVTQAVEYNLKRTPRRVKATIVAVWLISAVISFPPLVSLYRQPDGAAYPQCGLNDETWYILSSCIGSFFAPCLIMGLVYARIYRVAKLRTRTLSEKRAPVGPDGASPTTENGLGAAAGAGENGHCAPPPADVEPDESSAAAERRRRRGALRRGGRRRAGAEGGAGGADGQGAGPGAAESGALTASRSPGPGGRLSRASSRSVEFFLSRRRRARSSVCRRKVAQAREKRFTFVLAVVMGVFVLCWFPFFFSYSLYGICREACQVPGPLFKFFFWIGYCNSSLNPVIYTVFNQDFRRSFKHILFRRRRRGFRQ
As to the kind of experiment: Radioligand binding experiment for hα2C-adrenoceptor ([3H]raulwolscine). The conditions noted are these: [3H]raulwolscine 1 nM, 60 minutes at 25° C.; for IC50: read-out: h-α2C pIC50 (converted). On the procedure:
as §1, §3, §4, §2

Each structure is given as a SMILES string.

T1 sequence (P31645 whole entry): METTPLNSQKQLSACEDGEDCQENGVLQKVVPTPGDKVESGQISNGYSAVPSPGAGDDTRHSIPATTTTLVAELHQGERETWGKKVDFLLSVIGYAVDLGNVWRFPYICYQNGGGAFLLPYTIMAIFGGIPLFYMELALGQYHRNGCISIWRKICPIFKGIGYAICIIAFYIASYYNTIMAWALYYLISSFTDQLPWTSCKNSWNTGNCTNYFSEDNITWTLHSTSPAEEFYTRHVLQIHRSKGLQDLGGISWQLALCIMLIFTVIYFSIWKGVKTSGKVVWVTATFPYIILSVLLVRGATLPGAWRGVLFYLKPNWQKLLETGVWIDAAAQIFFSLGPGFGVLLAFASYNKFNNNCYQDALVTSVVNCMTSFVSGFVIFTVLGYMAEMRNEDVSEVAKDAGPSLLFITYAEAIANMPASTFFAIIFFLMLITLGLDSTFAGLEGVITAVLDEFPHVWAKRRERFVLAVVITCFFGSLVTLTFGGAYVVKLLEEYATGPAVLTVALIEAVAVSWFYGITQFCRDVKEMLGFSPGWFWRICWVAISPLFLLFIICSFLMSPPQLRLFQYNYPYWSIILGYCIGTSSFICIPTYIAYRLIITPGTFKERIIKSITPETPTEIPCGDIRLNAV

In the case of `COc1ccc(Cn2c(-c3cccc(CNCC4CCCO4)c3)c(Cl)nc(NC3CCN(Cc4ccc5ccccc5c4)CC3)c2=O)cc1` (stereo not drawn) [8-07], the values for the IC50 in assay [1], in assay [2] and in assay [3] were 100 nM, 501 nM and 158 nM, respectively.
With `COc1ccc(Cn2c(-c3cccc(N4CCC(N5CCCC5)CC4)c3)c(Cl)nc(NC3CCN(Cc4ccc5ccccc5c4)CC3)c2=O)cc1` [8-13], the IC50 was 126 nM in assay [1], 501 nM in assay [2] and 126 nM in assay [3].
As for `O=C(CCN(c1nccn(CCC(=O)c2ccccc2)c1=O)C1CCN(Cc2cnc3ccccc3c2)CC1)c1ccccc1` [9-20], the IC50 was 398 nM in assay [1], 3160 nM in assay [2] and 398 nM in assay [3].
Consider `O=c1c(NC2CCN(Cc3ccc4ccccc4c3)CC2)nccn1-c1cncnc1` [6-08], for which the IC50 was 200 nM in assay [1], 631 nM in assay [2] and 200 nM in assay [3].
Consider `O=C(NCc1ccc(-n2ccnc(NC3CCN(Cc4ccc5ccccc5c4)CC3)c2=O)cc1)NCC1CCCCC1` [1-41], for which the “h-5HTT pIC50” value in assay [1] was 7.2. Besides, the “h-α2A pIC50” value in assay [2] stood at 6.2. Moreover, the “h-α2C pIC50” value in assay [3] is reported as 7.2.
As for `O=C1c2ccccc2C(=O)N1CCCn1ccnc(N2CCN(Cc3ccc4ccccc4c3)CC2)c1=O` [9-01], the IC50 in assay [1] is 31.6 nM; in assay [2], 631 nM; in assay [3], 79.4 nM.
On to `O=C(CCc1ccccc1)NCc1ccc(-n2ccnc(NC3CCN(Cc4ccc5ccccc5c4)CC3)c2=O)cc1` [1-43], for which the figures for the IC50 in assay [1], in assay [2] and in assay [3] were 6.31 nM, 251 nM and 39.8 nM, respectively.
In the case of `O=C1CN(Cc2ccc(-n3ccnc(NC4CCN(Cc5ccc6ccccc6c5)CC4)c3=O)cc2)CCN1` [2-04], the values for the IC50 in assay [1], in assay [2] and in assay [3] were 31.6 nM, 126 nM and 25.1 nM, respectively.
For `CN(Cc1ccccc1)C(=O)Cn1ccnc(NC2CCN(Cc3ccc4ccccc4c3)CC2)c1=O` [1-69] the same measures were 50.1 nM, 200 nM and 20 nM.
For `O=C(Cn1ccnc(NC2CCN(Cc3ccc4ccccc4c3)CC2)c1=O)NCC(c1ccccc1)c1ccccc1` [1-19], in that order: 79.4 nM, 398 nM and 63.1 nM.
For `O=c1c(N2CCN(Cc3cccc4ccccc34)CC2)nccn1Cc1ccccc1` [9-26], in that order: 2510 nM, 501 nM and 1000 nM.
As for `O=c1c(NC2CCN(Cc3ccc4ccccc4c3)CC2)nccn1-c1ccc(CNCc2ccco2)cc1` [1-82], the IC50 was 5.01 nM in assay [1], 158 nM in assay [2] and 12.6 nM in assay [3].
In the case of `NCc1ccc(-n2ccnc(NC3CCN(Cc4ccc5ccccc5c4)CC3)c2=O)cc1` [1-01], the IC50 in assay [1] was 20 nM; in assay [2], 200 nM; in assay [3], 20 nM.
For `O=c1c(NC2CCN(Cc3ccc4ccccc4c3)CC2)nccn1-c1cnc2ccccc2c1` [6-09], the IC50 in assay [1] is 50.1 nM; in assay [2] it was 200 nM; in assay [3], 126 nM.
On to `O=c1c(NC2CCN(Cc3ccc4ccccc4c3)CC2)nccn1-c1ccc(CN2CCC(F)CC2)cc1` [2-12], for which the “h-5HTT pIC50” value in assay [1] is reported as 8.4. The “h-α2A pIC50” value in assay [2] came out at 7.3. Also, the “h-α2C pIC50” value in assay [3] is given as 8.1.
Consider `O=c1c(NC2CCN(Cc3ccc4ccccc4c3)CC2)nccn1CCCOc1ccccc1` [3-10], for which the figures for the IC50 in assay [1], in assay [2] and in assay [3] were 15.8 nM, 126 nM and 50.1 nM, respectively.
For `COc1ccc(Cn2c(-c3ccc(CN4CCC(O)CC4)cc3)c(Cl)nc(NC3CCN(Cc4ccc5ccccc5c4)CC3)c2=O)cc1` [8-11], the figures for the IC50 in assay [1], in assay [2] and in assay [3] were 31.6 nM, 126 nM and 39.8 nM, respectively.
For `O=c1c(NC2CCN(Cc3ccc4ccccc4c3)CC2)nccn1Cc1cccc(Br)c1` [5-13], in that order: 126 nM, 200 nM and 126 nM.
For `CC(CC(=O)NCc1ccc(-n2ccnc(NC3CCN(Cc4ccc5ccccc5c4)CC3)c2=O)cc1)CC(C)(C)C` (stereo not drawn) [1-27] the same measures were 20 nM, 631 nM and 63.1 nM.
In the case of `NC(=O)CCNCc1ccc(-n2ccnc(NC3CCN(Cc4ccc5ccccc5c4)CC3)c2=O)cc1` [1-56], the results for the IC50 in assay [1], in assay [2] and in assay [3] were 15.8 nM, 251 nM and 25.1 nM, respectively.
For `O=c1[nH]c(-c2cccc(CN3CCCCC3)c2)c(Cl)nc1NC1CCN(Cc2ccc3ccccc3c2)CC1` [7-05], in that order: 631 nM, 794 nM and 126 nM.
For `O=C(Cc1ccsc1)NCc1ccc(-n2ccnc(NC3CCN(Cc4ccc5ccccc5c4)CC3)c2=O)cc1` [1-95], in that order: 6.31 nM, 398 nM and 20 nM.
For `O=c1c(NC2CCN(Cc3ccc4ccccc4c3)CC2)nccn1-c1ccc2c(c1)CN(CCO)CC2` [6-12], in that order: 39.8 nM, 31.6 nM and 5.01 nM.
As for `CCN(CC)CCC(=O)NCc1ccc(-n2ccnc(NC3CCN(Cc4ccc5ccccc5c4)CC3)c2=O)cc1` [1-58], the values for the IC50 in assay [1], in assay [2] and in assay [3] were 6.31 nM, 79.4 nM and 7.94 nM, respectively.
For `O=C(Cn1ccnc(NC2CCN(Cc3ccc4ccccc4c3)CC2)c1=O)N1CCN(Cc2ccccc2)CC1` [2-06] the same measures were 316 nM, 398 nM and 7.94 nM.
As to `C#CCN(C)C(=O)Cn1ccnc(NC2CCN(Cc3ccc4ccccc4c3)CC2)c1=O` [1-38], the IC50 in assay [1] was 1580 nM; in assay [2], 398 nM; in assay [3] it was 63.1 nM.

(Values after patent publication US20080269251A1, “Substituted Pyrazinone Derivatives as Alpha2C-Adrenoreceptor Antagonists” (priority 2005, published 2008).)
